# Experimental data reported in patent US6368788B1 (priority 1987, dated 2002).
# Columns and labels:
# [1] = test system: Mycobacterium tuberculosis; set-up: species or system human; details: in vivo
# Staphylococci = test: Antibiotic sensitivity (doubling-dilution, MIC-2000) of patient isolates before and after Stage 1; format: cell-based
# Protocol: Antibiotics were administered according to established dosages and routes: i.e., penicillin, Ampicillin, oxacillin, tetracycline, erythromycin, garamycin; administered by intramuscular route. Antibiotics were chosen according to the antibiotic sensitivity of the Staphylococci isolated from the respective patients. (Antibiotic sensitivity was determined by testing staphylococcal isolates for their sensitivity in an antibiotic sensitivity doubling-dilution assay with the aid of the semi-automatic MIC-2000 system, Dynatech, USA).
# Staphylococci were isolated from patients before and after treatment in Stage 1 with L-Glu-L-Trp in order to determine whether a favorable reversal of T-lymphocyte immunodeficiency might lead to a change in the antibiotic sensitivity. The isolated bacterial colonies following Stage I were typed as follows: namely, in 16 patients S. aureus, in 34, S. epidermidis, in 2 saprophytic Staphylococci. In all cases the same types of Staphylococci were isolated following treatment with L-Glu-L-Trp, but in 4 patients the predominant Staphylococci in the isolates changed from S. aureus to S. epidermidis (n=2), and saprophytic Staphylococci (n=2).
# Antibiotic sensitivity of Staphylococci were determined by doubling-dilution methods with the aid of the semiautomatic MIC-2000 system (Dynatech, USA).
# Rauscher MuLV = test: Anti-viral response to Rauscher MuLV; format: in vivo, mice
# Excerpt: Innate mechanisms of anti-viral immunity are important to survival of the host. The Rauscher murine leukemia virus (MuLV) is an example of a highly virulent animal retrovirus infection, first isolated and characterized by Dr. Rauscher from BALB/c mouse tissues in 1962. […] The virus employed in present GLP/blinded study was a murine leukemia complex known to induce progressive erythroleukemia in mice (i.e., Rauscher MuLV and replication-defective Rauscher spleen focus-forming virus). Disease manifested within about 6 days with death by about 50 days. Measurements of splenomegaly, blood reverse transcriptase, virus plaque assays (i.e., XC-plaque assay for viremia using SC-1 host cells) and serum anti-viral antibody titers were used to assess infection. Spleens achieved about 2.0 grams in weight within 21 days of infection, as compared with a normal spleen weights in an uninfected animals of about 0.1 gram.
# Mice were inoculated with Rauscher MuLV complex (0.1 ml/7.8×10^4 PFU/mL) on day 0 and sacrificed on day 21. Test groups were comprised of 10 mice and control groups 6 mice. Control articles included saline and AZT (in drinking water at about 1.25 mg/mouse/day≈63 mg/kg/day/mouse). […] A non-infected group of mice was also sacrificed on day 21 to provide normal control values.
# In EXAMPLE 38, SC-1 cells were originally derived from murine embryos, and XC cells (a rat tumor cell line induced by Rous Sarcoma Virus) were obtained from the ATCC in Rockville, Md.
# hepatitis B = test: Children with chronic persistent hepatitis B; format: in vivo, human
# Protocol: In accord with a USSR Ministry of Health decision 125 children suffering with chronic persistent hepatitis B were entered into this trial over a two month period. Group 1 consisted of 35 children who received decaris immunomodulatory therapy; Group 2, 38 children who received thymalin treatments; Group 3, […] who received L-Glu-L-Trp; and, Group 4, 32 children who received only conventional symptom specific therapy.
# L-Glu-L-Trp was administered at a dose of 2 μg/kg of body mass, im, daily for […], and a repeat (identical) course of treatment was administered 10 days after termination of the first course.
# [2] = After Stage 1 Treatment (L-Glu-L-Trp only)
# [3] = 25 mg/kg, days 0, 1, 2, 3, and 4
# [4] = 50 mg/kg, days 0, 1, 2, 3, and 4
# [5] = 100 mg/kg, days 0, 1, 2, 3, and 4
# [6] = 200 mg/kg, days 0, 1, 2, 3, and 4
# [7] = 20 mg/kg, days 0, 1, 2, 3, and 4 (Group 8)
# [8] = 20 mg/kg, days −2, −1, 0, +1, and +2 (Group 10)
molecule,measurement,setting,value
c1ccc([C@H]2CN3CCSC3=N2)cc1 [decaris],"Considerable Improvement, % of patients",[1],5%
same,"Considerable Improvement, No. of patients",[1],1
same,"Improvement, % of patients",[1],82%
same,"Improvement, No. of patients",[1],18
same,"No Change, % of patients",[1],13%
same,"No Change, No. of patients",[1],3
same,Patients with closure of degeneration foci and cavities in the lungs,[1],10
same,Patients with closure of foci and cavities,[1],45%
same,Patients with “considerable improvement”,[1],5%
same,Patients with “improvement”,[1],18
same,Response rate,[1],86%
CN[C@@H]1[C@@H](O)[C@@H](O[C@@H]2[C@@H](O)[C@H](O[C@H]3OC(CN)=CC[C@H]3N)[C@@H](N)C[C@H]2N)OC[C@]1(C)O [Cisomycin],Mean minimum inhibitory concentration (MIC),Staphylococci; [2],1.59 ± 0.58 µg/mL
same,Mean minimum inhibitory concentration (MIC),Staphylococci; Before Treatment,3.46 ± 0.90 µg/mL
[H]/N=C(/N)N[C@H]1[C@H](O)[C@@H](O)[C@H](O[C@@H]2O[C@@H](C)[C@](O)(C=O)[C@H]2O[C@@H]2O[C@@H](CO)[C@H](O)[C@@H](O)[C@@H]2NC)[C@@H](N/C(N)=N\[H])[C@@H]1O [Streptomycin],Mean minimum inhibitory concentration (MIC),Staphylococci; [2],3.39 ± 0.66 µg/mL
same,Mean minimum inhibitory concentration (MIC),Staphylococci; Before Treatment,6.71 ± 0.59 µg/mL
CC(=O)OCC1=C(C(=O)O)N2C(=O)[C@@H](NC(=O)Cc3cccs3)[C@H]2SC1 [Keflin],Mean minimum inhibitory concentration (MIC),Staphylococci; [2],1.86 ± 0.69 µg/mL
same,Mean minimum inhibitory concentration (MIC),Staphylococci; Before Treatment,4.49 ± 0.93 µg/mL
Cc1onc(-c2ccccc2)c1C(=O)N[C@@H]1C(=O)N2[C@@H]1SC(C)(C)[C@@H]2C(=O)O [Oxacillin],Mean minimum inhibitory concentration (MIC),Staphylococci; [2],1.56 ± 0.45 µg/mL
same,Mean minimum inhibitory concentration (MIC),Staphylococci; Before Treatment,5.11 ± 0.63 µg/mL
Cc1nnc(SCC2=C(C(=O)O)N3C(=O)[C@@H](NC(=O)Cn4cnnn4)[C@H]3SC2)s1 [Cephamezine],Mean minimum inhibitory concentration (MIC),Staphylococci; [2],1.33 ± 0.53 µg/mL
same,Mean minimum inhibitory concentration (MIC),Staphylococci; Before Treatment,3.52 ± 0.94 µg/mL
"Cc1cn([C@H]2C[C@H](N=[N+]=[N-])[C@@H](CO)O2)c(=O)[nH]c1=O [AZT, reference compound]",Reduction Splenomegaly (%),Rauscher MuLV; [3],46%
same,Spleen Weight (mean ± SD),Rauscher MuLV; [3],0.31 ± 0.05
same,Reduction Splenomegaly (%),Rauscher MuLV; [4],33%
same,Spleen Weight (mean ± SD),Rauscher MuLV; [4],0.35 ± 0.17
same,Reduction Splenomegaly (%),Rauscher MuLV; [5],52%
same,Spleen Weight (mean ± SD),Rauscher MuLV; [5],0.29 ± 0.02
same,Reduction Splenomegaly (%),Rauscher MuLV; [6],46%
same,Spleen Weight (mean ± SD),Rauscher MuLV; [6],0.31 ± 0.09
O=C(Cc1cccs1)N[C@@H]1C(=O)N2C(C(=O)[O-])=C(C[n+]3ccccc3)CS[C@H]12 [Ceporin],Mean minimum inhibitory concentration (MIC),Staphylococci; [2],1.82 ± 0.67 µg/mL
same,Mean minimum inhibitory concentration (MIC),Staphylococci; Before Treatment,5.69 ± 0.86 µg/mL
CC1(C)S[C@@H]2[C@H](NC(=O)Cc3ccccc3)C(=O)N2[C@H]1C(=O)O [Penicillin],Mean minimum inhibitory concentration (MIC),Staphylococci; [2],2.52 ± 0.70 µg/mL
same,Mean minimum inhibitory concentration (MIC),Staphylococci; Before Treatment,9.45 ± 0.28 µg/mL
Poly(IC),Reduction Splenomegaly (%),Rauscher MuLV; [7],27%
same,Spleen Weight (mean ± SD),Rauscher MuLV; [7],0.37 ± 0.22
same,Reduction Splenomegaly (%),Rauscher MuLV; [8],−78%
same,Spleen Weight (mean ± SD),Rauscher MuLV; [8],0.72 ± 0.29
c1ccc([C@H]2CN3CCSC3=N2)cc1 [Descaris],Percent of Subjects Disease Free at 6 Months After Treatment,"hepatitis B; Group 1, Pre-Treatment ALCT Activity None",100%
same,Percent of Subjects Disease Free at 6 Months After Treatment,"hepatitis B; Group 2, Pre-Treatment ALCT Activity Moderate",67%
same,Percent of Subjects Disease Free at 6 Months After Treatment,"hepatitis B; Group 3, Pre-Treatment ALCT Activity High",67%
NC[C@H]1O[C@H](O[C@H]2[C@H](O)[C@@H](O[C@H]3O[C@H](CO)[C@@H](O)[C@H](N)[C@H]3O)[C@H](N)C[C@@H]2N)[C@H](O)[C@@H](O)[C@@H]1O [Kanamycin],Mean minimum inhibitory concentration (MIC),Staphylococci; [2],2.09 ± 0.54 µg/mL
same,Mean minimum inhibitory concentration (MIC),Staphylococci; Before Treatment,6.32 ± 0.58 µg/mL
O=C(N[C@H](CO)[C@H](O)c1ccc([N+](=O)[O-])cc1)C(Cl)Cl [Levomycetin],Mean minimum inhibitory concentration (MIC),Staphylococci; [2],4.58 ± 0.67 µg/mL
same,Mean minimum inhibitory concentration (MIC),Staphylococci; Before Treatment,9.17 ± 0.36 µg/mL
Cc1nnc(SCC2=C(C(=O)O)N3C(=O)[C@@H](NC(=O)Cn4cnnn4)[C@H]3SC2)s1 [Kefzol],Mean minimum inhibitory concentration (MIC),Staphylococci; [2],1.86 ± 0.93 µg/mL
same,Mean minimum inhibitory concentration (MIC),Staphylococci; Before Treatment,4.61 ± 0.87 µg/mL
